This is an account of results in ChEMBL document CHEMBL3393021, “Evaluation and synthesis of polar aryl- and heteroaryl spiroazetidine-piperidine acetamides as ghrelin inverse agonists” (ACS Med Chem Lett, 2015).

Values after ≈ are worked out from the molar mass of the structure shown.

A short description of one data set: physchem. As to conditions: buffer, pH 7.4.
Data set [1] in a line: Kinetic solubility in 2% sodium phosphate buffer at pH 6.5 after 24 hrs. In kind it is physicochemical. As to conditions: read-out: Kinetic_solubility.
Data set [2] in a line: Toxicity in human THLE cells. It is filed as cell-based.
The nature of data set [3]: Volume of distribution at steady state in Wistar Han rat at 1 mg/kg, iv or 5 mg/kg, po. As to conditions: in vivo, read-out: Vdss. In kind it is ADME, organism-based.
Data set [4] can be described thus: Oral bioavailability in Wistar Han rat at 5 mg/kg. It is filed as ADME, organism-based. As to conditions: in vivo.
Data set [5] is described as follows: Volume of distribution at steady state in […] at 1 mg/kg, iv or 4 mg/kg, po. It is filed as ADME, organism-based, Canis lupus familiaris. As to conditions: in vivo, read-out: Vdss.
The nature of data set [6]: Oral bioavailability in […] at 4 mg/kg. Conditions: in vivo. In kind it is ADME, organism-based, Canis lupus familiaris.
Data set [7] is described as follows: Volume of distribution at steady state in […] at 1 mg/kg, iv or 5 mg/kg, po. It is filed as ADME, organism-based, Macaca fascicularis. Conditions: in vivo, read-out: Vdss.
A short description of data set [8]: Oral bioavailability in […] at 5 mg/kg. It is filed as ADME, organism-based, Macaca fascicularis. As to conditions: in vivo.

In the case of `COc1ccc(CCC(=O)N2CCC3(CC2)CN([C@@H]2CCc4cc(-c5cc(C)ncn5)ccc42)C3)c(C(N)=O)c1`, the logD in the data set “physchem” worked out at 1.9.

`Cc1cc(-c2ccc3c(c2)CC[C@H]3N2CC3(CCN(C(=O)Cc4nn(C)c5ncccc45)CC3)C2)ncn1`: in “physchem”, the logD is 2.1.

`COc1ccc(OCC(=O)N2CCC3(CC2)CN([C@@H]2CCc4cc(-c5cc(C)ncn5)ccc42)C3)c(C#N)c1`: in “physchem”, the logD came out at 2.3.

For `COc1ccc(CC(=O)N2CCC3(CC2)CN([C@@H]2CCc4cc(-c5cc(C)ncn5)ccc42)C3)c(C(N)=O)c1`, the solubility kinetic at 24 h in [1] worked out at 185 µg/mL (≈ 352 µM). For the same compound, the INH in data set [2] is > 248 µM. In addition, the Vd in data set [3] worked out at 8.1 L/kg; in data set [5] it was 7.3 L/kg; in data set [7] it was 2.2 L/kg. Further, the bioavailability was determined as 15% in [4], 67% in data set [6] and 32% in [8]. The compound further returned a logD in the data set “physchem” of 1.4.

`COc1ccc(CC(=O)N2CCC3(CC2)CN([C@@H]2CCc4cc(-c5cc(C)ncn5)ccc42)C3)c(NC(C)=O)c1` registered a logD in the data set “physchem” of 1.6.

`COc1ccc(CC(=O)N2CCC3(CC2)CN([C@@H]2CCc4cc(-c5cc(C)ncn5)ccc42)C3)nc1` returned a logD in the data set “physchem” of 1.6.

On to `COc1ccc(CC(=O)N2CCC3(CC2)CN([C@@H]2CCc4cc(-c5cc(C)ncn5)ccc42)C3)c(C#N)c1`, for which the logD in the data set “physchem” turned out to be 2.4.
